Data set [1] in a line: Selectivity index, ratio of IC50 for human BJ cells to IC50 for human MIAPaCa2 cells. The format is toxicity. The conditions noted are these: BJ cells versus MIAPaCa2 cells, read-out: Ratio IC50.
A short description of data set [2]: Selectivity index, ratio of IC50 for human BJ cells to IC50 for human A549 cells. Format: toxicity. The conditions noted are these: BJ cells versus A549 cells, read-out: Ratio IC50.
The nature of data set [3]: Selectivity index, ratio of IC50 for human BJ cells to IC50 for human SKOV3 cells. The format is toxicity. The conditions noted are these: BJ cells versus SKOV3 cells, read-out: Ratio IC50.
The subject of a further data set is SK-BR-3. Kind of data set: Antiproliferative activity against human SKBR3 cells after 72 hrs by MTT assay. The format is functional, cell-based. The settings on record: SK-BR-3, 72 h. (Formazan colour is commonly taken as a measure of viable cells.)
A further data set concerns BJ. Kind of data set: Cytotoxicity against human BJ cells assessed as reduction in cell viability after 72 hrs by MTT assay. Format: cell-based.
For the next data set, the system named is A549. Kind of data set: Antiproliferative activity against human A549 cells after 72 hrs by MTT assay. Format: functional, cell-based. The settings on record: A549, 72 h.
Another data set deals with MIA PaCa-2. Kind of data set: Antiproliferative activity against human MIAPaCa2 cells after 72 hrs by MTT assay. Format: functional, cell-based. The settings on record: MIA PaCa-2, 72 h.

As a reminder, the IC50 is the concentration needed to halve the response being measured. Take `CC1=C(O)C(=O)C=C2C1=CC=C1[C@@]2(C)CC[C@@]2(C)[C@@H]3C[C@](C)(C(=O)O)CC[C@]3(C)CC[C@]12C` [CELASTROL]: the figures for the selectivity ratio in data set [1], in data set [2] and in data set [3] were 5.97, 1.75 and 2.34, respectively. The compound also displayed an IC50 with SK-BR-3 of 720 nM.

Turning to `CNC(=O)N[C@]1(C)CC[C@]2(C)CC[C@]3(C)C4=CC=C5C(=CC(=O)C(O)=C5C)[C@]4(C)CC[C@@]3(C)[C@@H]2C1`, the selectivity ratio in data set [1] is 4.72; in data set [2], 1.36. For the same compound, the IC50 in the data set with BJ worked out at 1960 nM; in the data set with A549 it was 1450 nM; in the data set with MIA PaCa-2, 410 nM.

Consider `CCCCNC(=O)N[C@]1(C)CC[C@]2(C)CC[C@]3(C)C4=CC=C5C(=CC(=O)C(O)=C5C)[C@]4(C)CC[C@@]3(C)[C@@H]2C1`, for which the selectivity ratio in data set [1] worked out at 6.94; in data set [2], 1.48. The IC50 in the data set on BJ is 2120 nM; in the data set with A549 it was 1440 nM; with MIA PaCa-2 it was 310 nM.

The record behind these values is ChEMBL document CHEMBL4190255, “Novel celastrol derivatives with improved selectivity and enhanced antitumour activity: Design, synthesis and biological evaluation” (Eur J Med Chem, 2017).
